Paper PMC12591484 (PLOS One, 2025)

Key:
Test in all cases: Effects of cysteine modification with pCMBS on Low/High GABA response ratio
Assay type in all cases: cell-based
[1] = molecular target: T1, α1A291Cβ3γ2L GABAA receptors (Homo sapiens, UniProt P14867+P18507+P28472, A318C)
T1 construct: expressed in transfected cells; host or cells: Xenopus oocytes injected with capped mRNA, 1α:1β:5γ
Method: (§1) The pCMBS exposure was calculated as concentration × time (e.g. 100 μM × 30 s = 3000 µM × s). […] The pCMBS exposures were varied to generate modification ratio vs. pCMBS exposure curves. Each oocyte was studied at a single pCMBS exposure condition. For each cysteine mutant, 5 oocytes were studied at 4 to 7 pCMBS exposure conditions. The modification ratio vs. pCMBS exposure curves were fit with mono-phasic or bi-phasic logistic equations similar to Eq 1, using non-linear least squares.

[2] = molecular target: T2, α1M236Cβ3γ2L GABAA receptors (Homo sapiens, UniProt P14867+P18507+P28472, M263C); settings: post- to pre-modification Low/High GABA response ratio
T2 construct: expressed in transfected cells; host or cells: Xenopus oocytes injected with capped mRNA, 1α:1β:5γ
Method: as §1

[3] = molecular target: T3, α1S270Cβ3γ2L GABAA receptors (Homo sapiens, UniProt P14867+P18507+P28472, S297C)
T3 construct: expressed in transfected cells; host or cells: Xenopus oocytes injected with capped mRNA, 1α:1β:5γ
Method: as §1

[4] = molecular target: T4, α1β3L231Cγ2L GABAA receptors (Homo sapiens, UniProt P14867+P18507+P28472, L256C); settings: post- to pre-modification Low/High GABA response ratio
T4 construct: expressed in transfected cells; host or cells: Xenopus oocytes injected with capped mRNA, 1α:1β:5γ
Method: as §1

[5] = molecular target: T5, α1β3M286Cγ2L GABAA receptors (Homo sapiens, UniProt P14867+P18507+P28472, M311C); settings: post- to pre-modification Low/High GABA response ratio
T5 construct: expressed in transfected cells; host or cells: Xenopus oocytes injected with capped mRNA, 1α:1β:5γ
Method: as §1

[6] = molecular target: T6, α1β3γ2I242C GABAA receptors (Homo sapiens, UniProt P14867+P18507+P28472, I281C); settings: post- to pre-modification Low/High GABA response ratio
T6 construct: expressed in transfected cells; host or cells: Xenopus oocytes injected with capped mRNAs mixed 1α:1β:5γ
Method: as §1

[7] = molecular target: T7, α1β3γ2L246C GABAA receptors (Homo sapiens, UniProt P14867+P18507+P28472, L285C); settings: post- to pre-modification Low/High GABA response ratio
T7 construct: expressed in transfected cells; host or cells: Xenopus oocytes injected with capped mRNAs mixed 1α:1β:5γ
Method: as §1

[8] = molecular target: T8, α1β3γ2S301C GABAA receptors (Homo sapiens, UniProt P14867+P18507+P28472, S340C); settings: post- to pre-modification Low/High GABA response ratio
T8 construct: expressed in transfected cells; host or cells: Xenopus oocytes injected with capped mRNAs mixed 1α:1β:5γ
T8 sequence (P14867 28-456): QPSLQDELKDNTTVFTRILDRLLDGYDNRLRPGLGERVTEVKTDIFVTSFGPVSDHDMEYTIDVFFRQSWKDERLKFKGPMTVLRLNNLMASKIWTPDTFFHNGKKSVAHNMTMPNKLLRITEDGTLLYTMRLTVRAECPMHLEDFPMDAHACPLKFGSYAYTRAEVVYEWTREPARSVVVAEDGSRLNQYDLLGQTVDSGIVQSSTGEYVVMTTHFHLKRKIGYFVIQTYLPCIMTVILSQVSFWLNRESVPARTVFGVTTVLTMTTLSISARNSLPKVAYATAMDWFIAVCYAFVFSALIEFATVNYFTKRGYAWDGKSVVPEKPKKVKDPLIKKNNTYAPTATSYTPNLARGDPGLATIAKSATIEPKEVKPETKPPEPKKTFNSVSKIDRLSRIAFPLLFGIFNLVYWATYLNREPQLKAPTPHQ
T8 sequence (P28472 26-473): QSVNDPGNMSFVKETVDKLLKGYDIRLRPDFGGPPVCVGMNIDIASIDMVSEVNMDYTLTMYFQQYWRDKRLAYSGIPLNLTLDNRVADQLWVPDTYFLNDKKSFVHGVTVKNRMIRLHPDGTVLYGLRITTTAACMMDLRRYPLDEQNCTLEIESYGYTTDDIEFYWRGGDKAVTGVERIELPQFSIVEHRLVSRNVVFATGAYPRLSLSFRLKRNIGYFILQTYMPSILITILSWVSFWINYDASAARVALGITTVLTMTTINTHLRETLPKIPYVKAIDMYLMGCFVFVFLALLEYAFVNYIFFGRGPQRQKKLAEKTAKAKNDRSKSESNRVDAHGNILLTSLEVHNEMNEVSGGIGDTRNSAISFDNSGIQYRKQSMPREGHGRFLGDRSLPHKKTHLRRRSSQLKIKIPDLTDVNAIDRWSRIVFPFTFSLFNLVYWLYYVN
T8 sequence (P18507 40-475 S340C): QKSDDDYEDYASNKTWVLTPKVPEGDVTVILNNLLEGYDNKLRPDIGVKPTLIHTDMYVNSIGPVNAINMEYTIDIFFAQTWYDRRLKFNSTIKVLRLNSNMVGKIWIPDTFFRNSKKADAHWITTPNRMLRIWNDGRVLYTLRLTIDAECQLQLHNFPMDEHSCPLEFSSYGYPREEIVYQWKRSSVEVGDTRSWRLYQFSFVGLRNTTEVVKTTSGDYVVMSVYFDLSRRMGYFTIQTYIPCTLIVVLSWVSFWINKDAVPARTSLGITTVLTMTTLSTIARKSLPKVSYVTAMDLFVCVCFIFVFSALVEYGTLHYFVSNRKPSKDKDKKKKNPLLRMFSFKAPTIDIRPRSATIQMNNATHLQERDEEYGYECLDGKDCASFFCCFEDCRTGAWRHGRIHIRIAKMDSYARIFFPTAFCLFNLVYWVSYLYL
Method: as §1

T1 sequence (P14867 28-456 A318C, one chain of several): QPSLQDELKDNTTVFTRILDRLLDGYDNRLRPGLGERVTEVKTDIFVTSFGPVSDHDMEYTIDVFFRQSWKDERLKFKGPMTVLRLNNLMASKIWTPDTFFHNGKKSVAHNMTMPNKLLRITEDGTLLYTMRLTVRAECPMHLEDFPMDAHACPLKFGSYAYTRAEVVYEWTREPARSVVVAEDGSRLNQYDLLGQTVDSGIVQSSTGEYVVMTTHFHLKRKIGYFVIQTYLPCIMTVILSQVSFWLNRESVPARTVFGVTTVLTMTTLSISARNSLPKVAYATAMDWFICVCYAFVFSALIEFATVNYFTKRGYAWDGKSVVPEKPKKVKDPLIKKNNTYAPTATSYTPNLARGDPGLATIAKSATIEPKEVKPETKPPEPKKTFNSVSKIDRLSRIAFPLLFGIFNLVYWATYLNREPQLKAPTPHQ
T1 sequence (P18507 40-475, one chain of several): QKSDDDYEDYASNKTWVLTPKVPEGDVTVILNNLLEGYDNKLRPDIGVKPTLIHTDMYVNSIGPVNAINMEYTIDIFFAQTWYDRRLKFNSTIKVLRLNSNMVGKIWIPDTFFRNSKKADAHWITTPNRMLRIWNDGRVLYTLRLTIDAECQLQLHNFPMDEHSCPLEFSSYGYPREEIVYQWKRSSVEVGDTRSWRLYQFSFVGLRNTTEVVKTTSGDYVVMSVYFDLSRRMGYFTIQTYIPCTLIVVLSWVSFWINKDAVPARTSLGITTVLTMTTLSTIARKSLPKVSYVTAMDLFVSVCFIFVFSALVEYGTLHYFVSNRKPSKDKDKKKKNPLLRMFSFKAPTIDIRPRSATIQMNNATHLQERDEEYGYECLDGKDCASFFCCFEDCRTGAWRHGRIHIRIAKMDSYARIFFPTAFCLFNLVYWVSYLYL
T3 sequence (P14867 28-456 S297C, one chain of several): as the sequence (P14867 28-456 A318C, one chain of several) above, with S270C, C291A counted along it
T3 sequence (P18507 40-475, one chain of several): as the sequence (P18507 40-475, one chain of several) above
T2 sequence (P14867 28-456 M263C, one chain of several): as the sequence (P14867 28-456 A318C, one chain of several) above, with M236C, C291A counted along it
T2 sequence (P18507 40-475, one chain of several): as the sequence (P18507 40-475, one chain of several) above
T7 sequence (P18507 40-475 L285C, one chain of several): as the sequence (P18507 40-475, one chain of several) above, with L246C counted along it
T4 sequence (P28472 26-473 L256C, one chain of several): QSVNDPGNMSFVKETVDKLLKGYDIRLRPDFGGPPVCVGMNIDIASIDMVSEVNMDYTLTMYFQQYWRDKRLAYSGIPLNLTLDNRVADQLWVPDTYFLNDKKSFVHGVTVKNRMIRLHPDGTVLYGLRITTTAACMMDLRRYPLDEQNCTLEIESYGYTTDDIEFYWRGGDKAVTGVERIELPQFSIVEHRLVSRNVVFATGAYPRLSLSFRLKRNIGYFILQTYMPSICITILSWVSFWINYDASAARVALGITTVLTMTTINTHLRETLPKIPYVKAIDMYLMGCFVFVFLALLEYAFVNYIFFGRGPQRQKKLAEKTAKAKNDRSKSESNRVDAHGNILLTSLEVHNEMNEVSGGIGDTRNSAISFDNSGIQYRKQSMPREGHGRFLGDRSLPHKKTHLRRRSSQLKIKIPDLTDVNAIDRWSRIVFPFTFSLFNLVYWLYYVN
T4 sequence (P18507 40-475, one chain of several): as the sequence (P18507 40-475, one chain of several) above
T6 sequence (P18507 40-475 I281C, one chain of several): as the sequence (P18507 40-475, one chain of several) above, with I242C counted along it
T5 sequence (P28472 26-473 M311C, one chain of several): as the sequence (P28472 26-473 L256C, one chain of several) above, with C231L, M286C counted along it
T5 sequence (P18507 40-475, one chain of several): as the sequence (P18507 40-475, one chain of several) above

Question: `O=S(=O)([O-])c1cc[c]([Hg][Cl])cc1.[Na+]` [pCMBS, para-chloromercuribenzenesulfonic acid sodium salt] was tested. Which “modification ratio, control modification, single oocyte example (Fig 2A)” value ([1]; 3 mM GABA + 10 µM pCMBS for 90 s) did it give?
Answer: 4.0

Question: And the “Maximal pCMBS Modification Ratio Mean ± SD” value ([1]; post- to pre-modification Low/High GABA response ratio)?
Answer: 4.7 ± 0.61

Question: And the “Maximal pCMBS Modification Ratio Mean ± SD” value [2]?
Answer: 13 ± 1.4

Question: What about the “pCMBS exposure with maximum effect on modification ratio” value ([3]; α1S270C, biphasic effect of increasing pCMBS exposure) of the same molecule?
Answer: 300 µM x s

Question: And the “Maximal pCMBS Modification Ratio Mean ± SD” value ([3]; α1S270Cβ3γ2L, post- to pre-modification Low/High GABA response ratio, biphasic)?
Answer: 11.8 ± 0.77

Question: And the “Maximal pCMBS Modification Ratio Mean ± SD” value [4]?
Answer: 13 ± 1.3

Question: And the “Maximal pCMBS Modification Ratio Mean ± SD” value [5]?
Answer: 9 ± 3.1

Question: What about the “Maximal pCMBS Modification Ratio Mean ± SD” value [6] of the same molecule?
Answer: 17 ± 4.9

Question: What about the “Maximal pCMBS Modification Ratio Mean ± SD” value [7] of the same molecule?
Answer: 5 ± 1.0

Question: And the “Maximal pCMBS Modification Ratio Mean ± SD” value [8]?
Answer: 5.3 ± 0.23
